From patent US20210070747A1, “2(1H)-QUINOLINONE DERIVATIVE” (priority 2017, published 2021)
Values after ≈ are worked out from the molar mass of the structure shown. Like-named read-outs stand apart in the source and are kept apart here.

Key:
E. coli DNA gyrase = molecular target: T1, E. coli DNA gyrase (Escherichia coli, UniProt P0AES6); assay: Test for evaluating the activity of inhibiting E. coli DNA gyrase enzyme (Method 2, supercoiling, recombinant gyrA/gyrB complex); assay type: biochemical
T1 construct: made in house; host or cells: E. coli BL21 (DE3)
How it was run: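 Recombinant E. coli gyrA/gyrB complex (His-tagged, BL21(DE3)-expressed, Ni-NTA purified; 0.135 nmol/mL final) supercoiled relaxed pBR322 (1 ng/μL) with 0.5 mmol/L ATP in pH 8.0 Tris buffer, 60 min at room temperature. H19 stopped the reaction; supercoiled/relaxed ratio read at 485/535 nm, inhibition curves built from varying compound concentrations.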

E. Coli ATCC 25922 = assay: Test for evaluating antibacterial activity (E. coli), broth microdilution MIC; assay type: cell-based; details: Escherichia coli, ATCC25922; 35° C., 18 hours, cation-adjusted Mueller-Hinton medium
How it was run: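 Broth microdilution per modified CLSI method in cation-adjusted Mueller-Hinton medium. Inoculum from overnight heart infusion agar growth, McFarland 0.5 suspension diluted 10-fold; incubation 35° C for 18 hours. MIC taken as lowest drug concentration with no visible growth.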

[1] = tested on: N. gonorrhoeae ATCC 49226; assay: Test for evaluating antibacterial activity (N. gonorrhoeae), broth microdilution MIC; assay type: cell-based; details: Neisseria gonorrhoeae, ATCC49226; 35° C., 24 hours, gonococcal broth
Description: Minimum inhibitory concentration (MIC) was measured using the broth microdilution method described below in accordance with a modification of the method of Geers et al. (Antimicrob. Agents. Chemother. (1989), 33, 233-234).
After sterilization, BD. Difco supplement C was added to give a final concentration of 1%, whereby a gonococcal broth was prepared.
Bacterial cells under test were cultured overnight on a chocolate II agar medium, scraped off and suspended at a concentration equivalent to McFarland 0.5 turbidity; the suspension thus obtained was diluted 5 folds to give a liquid inoculum. The inoculum (0.005 mL) was inoculated on a gonococcal broth containing the analyte compound and cultured at 35° C. for 24 hours. A minimum drug concentration at which no bacterial growth was macroscopically visible was designated MIC.

[2] = Method 2, read-out: E. Coli Gyrase supercoiling IC50

SMILES	IC50 (E. coli DNA gyrase) [µM]	MIC (E. Coli ATCC 25922) [mg/L]	MIC [1] [mg/L]	IC50 (E. coli DNA gyrase; [2]) [µM]
CNc1cc(F)cc2c(O)c(C(=O)Nc3ccc(C(=O)O)cc3CN3CCCC3)c(=O)[nH]c12.O=CO [Example 157, 4-{[6-fluoro-4-hydroxy-8-(methylamino)-2-oxo-1,2-dihydroquinoline-3-carbonyl]amino}-3-[(pyrrolidine-1-yl)methyl]benzoic acid-formate]	0.00561	16	0.12	
CNc1cc(F)cc2cc(C(=O)Nc3ccc(NC(=O)NS(C)(=O)=O)cc3)c(=O)[nH]c12 [Example 154, 6-fluoro-N-(4-{[(methanesulfonyl)carbamoyl]amino}phenyl)-8-(methylamino)-2-oxo-1,2-dihydroquinoline-3-carboxamide]		> 16	0.06 (≈ 0.134 µM)	0.00978
CNc1cc(F)cc2cc(C(=O)Nc3ccc(C(N)=O)cc3CN(C)C3CCCCC3)c(=O)[nH]c12 [Example 121, N-(4-carbamoyl-2-{[cyclohexyl(methyl)amino]methyl}phenyl)-6-fluoro-8-(methylamino)-2-oxo-1,2-dihydroquinoline-3-carboxamide]		> 32	0.25 (≈ 0.521 µM)	0.00248
CNc1cncc2cc(C(=O)Nc3ccc(C(=O)O)cc3CN(C)C3CCCCC3)c(=O)[nH]c12 [Example 108, 3-[[Cyclohexyl(methyl)amino]methyl]-4-[[8-(methylamino)-2-oxo-1,2-dihydro-1,6-naphthyridine-3-carbonyl]amino]benzoic Acid]		> 32	> 1	0.00605
CNc1cc(F)cc2cc(C(=O)Nc3ccc(CO)cc3CN(C)C3CCCCC3)c(=O)[nH]c12 [Example 122, N-[2-{[cyclohexyl(methyl)amino]methyl}-4-(hydroxymethyl)phenyl]-6-fluoro-8-(methylamino)-2-oxo-1,2-dihydroquinoline-3-carboxamide]		16 (≈ 34.3 µM)	0.5 (≈ 1.07 µM)	0.00192
CCc1cc(C(=O)O)ccc1NC(=O)c1cc2cc(F)cc(NC)c2[nH]c1=O [Example 93, 3-ethyl-4-{[6-fluoro-8-(methylamino)-2-oxo-1,2-dihydraquinoline-3-carbonyl]amino} benzoic acid]		> 2	0.25 (≈ 0.652 µM)	0.0318
CCc1cccc2cc(C(=O)Nc3ccc(C(=O)O)cc3)c(=O)[nH]c12 [Example 161, 4-[(8-ethyl-2-oxo-1,2-dihydroquinoline-3-carbonyl)amino]benzoic acid]		> 32	> 4	2.23
CNc1cccc2cc(C(=O)Nc3cccc(CC(=O)O)c3)c(=O)[nH]c12 [Example 4, (3-{[8-(methylamino)-2-oxo-1,2-dihydroquinoline-3-carboyl]amino}phenyl)acetic acid]		> 64	> 4	0.164
CNc1cc(F)cc2cc(C(=O)Nc3ccc(C(=O)O)cc3CN(C)C3CCN(C)CC3)c(=O)[nH]c12.Cl [Example 83, 4-{[6-fluoro-8-(methylamino)-2-oxo-1,2-dihydroquinoline-3-carbonyl]amino)-3-{[methyl(1-methylpiperidine-4-yl)amino]methyl} benzoic acid-hydrochloride]	0.00109	> 16	> 4	
CNc1cc(F)cc2c(O)c(C(=O)Nc3ccc(C(=O)O)cc3CN3CCC3)c(=O)[nH]c12.O=CO [Example 156, 3-[(azetidine-1-yl)methyl]-4-{[6-fluoro-4-hydroxy-8-(methylamino)-2-oxo-1,2-dihydroquinoline-3-carbonyl]amino}benzoic acid-formate]	0.0134	32	0.5	
CNc1cc(F)cc2cc(C(=O)Nc3ccc(C4OC(=O)NC4=O)cc3)c(=O)[nH]c12 (stereo not drawn) [Example 159, N-[4-(2,4-Dioxo-1,3-oxazolidin-5-yl)phenyl]-6-fluoro-8-(methylamino)-2-oxo-1,2-dihydroquinoline-3-carboxamide]		> 16	0.002 (≈ 0.00487 µM)	0.00108
CNc1cc(F)cc2cc(C(=O)Nc3ccc(C(=O)O)cc3CN(CCN)C3CCCCC3)c(=O)[nH]c12.O=C(O)C(F)(F)F [Example 110, 3-{[(2-aminoethyl)(cyclohexyl)amino]methyl}-4-{[6-fluoro-8-(methylamino)-2-oxo-1,2-dihydroquinoline-3-carbonyl]amino}benzoic acid-trifluoroacetate]	0.00368	> 64	> 1	
CCCCCCCCN(CCCCCCCC)Cc1cc(C(=O)O)ccc1NC(=O)c1cc2cc(F)cc(NC)c2[nH]c1=O [Example 106, 3-[(dioctylamino)methyl]-4-{[6-fluoro-8-(methylamino)-2-oxo-1,2-dihydroquinoline-3-carbonyl]amino} benzoic acid]		> 8	0.5 (≈ 0.821 µM)	0.00698
O=C(O)c1ccc(NC(=O)c2cc3cccc(O)c3[nH]c2=O)cc1 [Example 160, 4-[(8-Hydroxy-2-oxo-1,2-dihydroquinoline-3-carbonyl)amino]benzoic Acid]		> 32	> 4	11.7
CNc1cc(F)cc2c(NCC3CNC3)c(C(=O)Nc3ccc(C(=O)O)cc3)c(=O)[nH]c12.O=CO [Example 135, 4-{[4-{[(azetidine-3-yl)methyl]amino}-6-fluoro-8-(methylamino)-2-oxo-1,2-dihydroquinoline-3-carbonyl]amino}benzoic acid-formate]	0.00066	> 16	0.12	
CNc1cc(F)cc2c(O)c(C(=O)Nc3ccc(C(=N)N)cc3)c(=O)[nH]c12 [Example 150, N-(4-Carbamimidoylphenyl)-6-fluoro-4-hydroxy-8-(methylamino)-2-oxo-1,2-dihydroquinoline-3-carboxamide]		> 16	0.03 (≈ 0.0812 µM)	0.0893
CNc1cc(F)cc2c(NCCCN)c(C(=O)Nc3ccc(C(=O)O)cc3)c(=O)[nH]c12.O=CO [Example 132, 4-({4-[(3-aminopropyl)amino]-6-fluoro-8-(methylamino)-2-oxo-1,2-dihydroquinoline-3-carbonyl}amino)benzoic acid-formate]	0.00052	> 8	0.25	
CNc1cc(F)cc2cc(C(=O)N[C@H]3CC[C@H](C(=O)O)CC3)c(=O)[nH]c12 [Example 116, trans-4-{[6-fluoro-8-(methylamino)-2-oxo-1,2-dihydroquinoline-3-carbonyl]amino} cyclohexane-1-carboxylic acid]	0.137	> 64	> 1	
CNc1cc(F)cc2c(O)c(C(=O)Nc3ccccc3)c(=O)[nH]c12 [Example 129, 6-fluoro-4-hydroxy-8-(methylamino)-2-oxo-N-phenyl-1,2-dihydroquinoline-3-carboxamide]		> 16	1 (≈ 3.06 µM)	0.387
CNc1cc(F)cc2cc(C(=O)Nc3ccc(-c4nnn[nH]4)cc3)c(=O)[nH]c12 [Example 149, 6-fluoro-8-(methylamino)-2-oxo-N-[4-(1H-tetrazole-5-yl)phenyl]-1,2-dihydroquinoline-3-carboxamide]		> 8	0.03 (≈ 0.0791 µM)	0.00055
CNc1cc(F)cc2cc(C(=O)Oc3ccc(C(=O)O)cc3)c(=O)[nH]c12 [Example 162, 4-{[6-fluoro-8-(methylamino)-2-oxo-1,2-dihydroquinoline-3-carbonyl]oxy}benzoic acid]		> 32	> 1	3.45
CNc1cc(F)cc2c(O)c(C(=O)Nc3ccc(C(=O)O)cc3CN3CCOCC3)c(=O)[nH]c12 [Example 155, 4-[[6-Fluoro-4-hydroxy-8-(methylamino)-2-oxo-1,2-dihydroquinoline-3-carbonyl]amino]-3-[(morpholin-4-yl)methyl]benzoic Acid]		> 32	0.015 (≈ 0.0319 µM)	0.109
CNc1cc(F)cc2c(O)c(C(=O)Nc3ccc(C(=O)OC)cc3CN3CCCCC3)c(=O)[nH]c12 [Example 152, Methyl 4-[[6-fluoro-4-hydroxy-8-(methylamino)-2-oxo-1,2-dihydroquinoline-3-carbonyl]amino]-3-[(piperidin-1-yl)methyl]benzoate]		> 16	4 (≈ 8.29 µM)	1.23
CNc1cc(F)cc2nc(C(=O)Nc3ccc(C(=O)O)cc3CN(C)C3CCCCC3)c(=O)[nH]c12 [Example 100, 3-[[Cyclohexyl(methyl)amino]methyl]-4-[[7-fluoro-5-(methylamino)-3-oxo-3,4-dihydroquinoxaline-2-carbonyl]amino]benzoic Acid]		> 64	> 1	0.0337
CNc1cccc2cc(C(=O)Nc3cccc(C(=O)O)c3)c(=O)[nH]c12 [Example 1, 3-[[8-(Methylamino)-2-oxo-1,2-dihydroquinoline-3-carbonyl]amino]benzoic Acid]		> 64	> 4	0.0523
